{"source": "patent US7645802B2", "about": "(Biovail Laboratories International SRL., priority 2005, dated 2010)", "key": {"[1]": {"test": "forced degradation of bupropion HBr and HCl in the presence of excipients at 55° C., 55° C./100% RH, 100° C., 105° C. (incl. TGA at 100° C.)", "type": "physicochemical", "details": "TGA experiment at 100° C.", "quoted_text": "Further forced degradation studies were carried out at 55° C., at 55° C. and 100% relative humidity, at 100° C., and at 105° C. on both the HCl and HBr Bupropion salts in the presence of excipients. […] FIG. 53 is a graph showing the loss of each salt over time in a TGA experiment at 100° C."}, "CD-1 mice": {"system": "CD-1 mice", "test": "cortical EEG and behaviour in mice at convulsive and non-convulsive doses", "details": "150 mg/kg i.p.; for seizure-like behavioural activity over time, second study pair: time after injection", "description": "Test system: 30 healthy female mice, of strain CD-1, having a bodyweight of 25-29 g, were acclimatized for a minimum period of 4 days and used for this study. Each animal, after allocation to groups, was identified by markings on the dorsal surface of the tail. Environmental conditions included a temperature of 22±3° C., and artificial lighting of 12 hours light/dark cycle. Routine activities such as cleaning, feeding and watering were performed according to the RCSl's current SOPS.\nThe diluent used was 0.9% sodium chloride solution. Storage temperature was at about 25° C.\nTest Item Administration: The test item was administered intraperitoneally using a disposable syringe with a 1 ml syringe and 26 g needle. The route of administration was intraperitoneal.\nProtocol: Habituated mice were anesthetized with isofolurane, placed in a stereotaxic frame and maintained normothermic (36-37° C.) by means of a feedback-controlled mouse-designed homeothermic blanket (Harvard Apparatus). Under isoflurane anaesthesia, a midline skill incision was made over the skull and the skull exposed. Three partial craniectomies were performed: one overlying each temporal lobe and a third across the region overlying frontal cortex. Mouse-sized cranial EEG (E363/20, electrode with mounting screw and socket, Plastics One Inc) were affixed at each point. The electrode assembly was affixed to the skull with dental cement and then anaesthesia discontinued and the animal placed in the recording chamber for 30-60 minutes after recovery. Electrodes were then connected to a multichannel 363 Connector Cable system with SL6C 6 channel swivel commutator and baseline EEG recordings commenced using a Grass model Comet Portable 40-channel Digital EEG & Review System with Twin digital EEG in tandem with continuous digital video. […] Mice were run in parallel so that a hydrochloride mouse was injected within minutes of a hydrobromide mouse and recordings made simultaneously. Video-EEG was recorded for a period of one (1) hour. Afterwards, mice were returned to cages and then euthanized at 24 h and brains harvested.\nAnalysis: The duration of type IV polyspike high frequency (>1 Hz) high amplitude (>2× baseline) was determined for each mouse over the 1 h recording period."}, "TGA of bupropion salts": {"test": "TGA of bupropion salts", "type": "physicochemical", "details": "at 400° C.", "description": "2-5 mg of each salt was placed in an aluminium pan and covered with its lid. DSC was run for each sample at the rate of 10 degrees C./min (for HBr salt, different rates were used to investigate for polymorphs) from 30 degrees C. to 400 degrees C. TGA was also used for each of the HBr, HCl, maleate and tosylate salts.\n(§1) The salts were analyzed by DSC (at 10° C./min from 30° C. up to 400° C.) and the pH (aq. 0.5%), and the moisture content by KF were also measured. The TGA was performed on the HCl, maleate, tosylate and HBr salts."}, "[2]": {"test": "Closed vial / closed glass bottle stability (40° C./75% RH) of bupropion salt APIs", "type": "physicochemical"}, "[3]": {"test": "Solubility and other physical properties, Bupropion HBr vs Bupropion HCl"}, "[4]": {"test": "moisture content by KF and pH (aq. 0.5%) of bupropion salts", "type": "physicochemical", "details": "salt as received", "description": "The eight salts were first evaluated by HPLC, KF, pH and DSC for purity, water content, aqueous pH and possible polymorphs.\nas §1"}, "[5]": {"details": "10-Days, closed glass bottle 40 C./75% RH, HBr Lot# STN07491, HCl Lot# STN06973"}, "[6]": {"details": "10 Days, closed glass bottle 40 C./75% RH, HBr Lot# STN07492, HCl Lot# STN06978"}, "[7]": {"details": "14-Days, closed glass bottle 40° C./75% RH, HBr Lot# STN07492, HCl L# STN06973"}, "[8]": {"details": "24 Days, closed glass bottle 40° C./75% RH, HBr Lot# STN07492, HCl L# STN06973"}, "[9]": {"details": "24 Days, closed glass bottle 40° C./75% RH, HBr Lot# STN07492, HCl L# STN06973, hydrochloride"}, "[10]": {"details": "Initial, closed glass bottle 40 C./75% RH, HBr Lot# STN07491, HCl Lot# STN06973"}, "[11]": {"details": "Initial, closed glass bottle 40 C./75% RH, HBr Lot# STN07492, HCl Lot# STN06978"}, "[12]": {"details": "Initial, closed glass bottle 40° C./75% RH, HBr Lot# STN07492, HCl L# STN06973"}, "[13]": {"details": "HCl from Erregierre, HBr from Chemi, hydrochloride"}}, "note": "Entries after “also recorded” stand apart in the source; their conditions may differ. Where a name gives a salt, the structure may show the parent alone."}
{"compound": "CC(NC(C)(C)C)C(=O)c1cccc(Cl)c1.Cl", "note": "(racemic) [bupropion hydrochloride, (±)-1-(3-chlorophenyl)-2-[(1,1-dimethylethyl)amino]-1-propanone hydrochloride]", "values": [{"measurement": "disproportionation of the salt at elevated temperatures (TGA, loss of API)", "setting": "[1]", "result": "disproportionation of the HCl salt occurs with concomitant loss of gaseous HCl"}, {"measurement": "seizure EEG", "setting": "CD-1 mice; n=4 per salt, cortical electrodes, 1 h, listed as HCl, hydrochloride", "result": "no seizure EEG; also recorded: two very brief EEG bursts; also recorded: brief burst of seizure"}, {"measurement": "seizure-like behavioural activity over time, second study pair", "setting": "CD-1 mice", "result": "about 30 mins"}]}
{"compound": "CC(NC(C)(C)C)C(=O)c1cccc(Cl)c1", "note": "(stereo not drawn) [Bupropion HCl, bupropion hydrochloride]", "values": [{"measurement": "residue (TGA)", "setting": "TGA of bupropion salts", "result": "minimal residues"}, {"measurement": "% Assay", "setting": "[2]; [5]", "result": 96.3, "unit": "%"}, {"measurement": "% Impurities 3-CBZ", "setting": "[2]; [5]", "result": 0.110, "unit": "%"}, {"measurement": "% Impurities 20U78/dilu", "setting": "[2]; [5]", "result": 0.047, "unit": "%"}, {"measurement": "% Impurities 827U76", "setting": "[2]; [5]", "result": 0.045, "unit": "%"}, {"measurement": "% Impurities 852U77", "setting": "[2]; [5]", "result": 0.047, "unit": "%"}, {"measurement": "% Impurities Total unknown", "setting": "[2]; [5]", "result": 0.187, "unit": "%"}, {"measurement": "% Impurities Total (%)", "setting": "[2]; 10-Days, closed glass bottle 40 C./75% RH, HBr Lot# STN07491, HCl Lot# STN06973, hydrochloride", "result": 0.44, "unit": "%"}, {"measurement": "% Assay", "setting": "[2]; [6]", "result": 96.5, "unit": "%"}, {"measurement": "% Impurities 3-CBZ", "setting": "[2]; [6]", "result": 0.278, "unit": "%"}, {"measurement": "% Impurities 20U78/dilu", "setting": "[2]; [6]", "result": 0.057, "unit": "%"}, {"measurement": "% Impurities 827U76", "setting": "[2]; [6]", "result": 0.141, "unit": "%"}, {"measurement": "% Impurities 852U77", "setting": "[2]; [6]", "result": 0.124, "unit": "%"}, {"measurement": "% Impurities Total unknown", "setting": "[2]; [6]", "result": 0.137, "unit": "%"}, {"measurement": "% Impurities Total (%)", "setting": "[2]; 10 Days, closed glass bottle 40 C./75% RH, HBr Lot# STN07492, HCl Lot# STN06978, hydrochloride", "result": 0.74, "unit": "%"}, {"measurement": "% Assay", "setting": "[2]; [7]", "result": 98.5, "unit": "%"}, {"measurement": "% Impurities 3-CBZ", "setting": "[2]; [7]", "result": 0.019, "unit": "%"}, {"measurement": "% Impurities 20U78/dilu", "setting": "[2]; [7]", "result": 0.038, "unit": "%"}, {"measurement": "% Impurities 852U77", "setting": "[2]; [7]", "result": 0.010, "unit": "%"}, {"measurement": "% Impurities Total unknown", "setting": "[2]; [7]", "result": 0.038, "unit": "%"}, {"measurement": "% Impurities Total (%)", "setting": "[2]; 14-Days, closed glass bottle 40° C./75% RH, HBr Lot# STN07492, HCl L# STN06973, hydrochloride", "result": 0.11, "unit": "%"}, {"measurement": "% Assay", "setting": "[2]; [8]", "result": 98.5, "unit": "%"}, {"measurement": "% Impurities 3-CBZ", "setting": "[2]; [8]", "result": 0.082, "unit": "%"}, {"measurement": "% Impurities 827U76", "setting": "[2]; [8]", "result": 0.102, "unit": "%"}, {"measurement": "% Impurities 852U77", "setting": "[2]; [8]", "result": 0.023, "unit": "%"}, {"measurement": "% Impurities Total unknown", "setting": "[2]; [8]", "result": 0.049, "unit": "%"}, {"measurement": "% Impurities 20U78/dilu", "setting": "[2]; [9]", "result": 0.040, "unit": "%"}, {"measurement": "% Impurities Total (%)", "setting": "[2]; [9]", "result": 0.30, "unit": "%"}, {"measurement": "% Assay", "setting": "[2]; [10]", "result": 99.4, "unit": "%"}, {"measurement": "% Impurities 3-CBZ", "setting": "[2]; [10]", "result": 0.003, "unit": "%"}, {"measurement": "% Impurities 20U78/dilu", "setting": "[2]; [10]", "result": 0.040, "unit": "%"}, {"measurement": "% Impurities Total unknown", "setting": "[2]; [10]", "result": 0.053, "unit": "%"}, {"measurement": "% Impurities Total (%)", "setting": "[2]; Initial, closed glass bottle 40 C./75% RH, HBr Lot# STN07491, HCl Lot# STN06973, hydrochloride", "result": 0.10, "unit": "%"}, {"measurement": "% Assay", "setting": "[2]; [11]", "result": 99.1, "unit": "%"}, {"measurement": "% Impurities 3-CBZ", "setting": "[2]; [11]", "result": 0.002, "unit": "%"}, {"measurement": "% Impurities 20U78/dilu", "setting": "[2]; [11]", "result": 0.04, "unit": "%"}, {"measurement": "% Impurities Total unknown", "setting": "[2]; [11]", "result": 0.165, "unit": "%"}, {"measurement": "% Impurities Total (%)", "setting": "[2]; Initial, closed glass bottle 40 C./75% RH, HBr Lot# STN07492, HCl Lot# STN06978, hydrochloride", "result": 0.21, "unit": "%"}, {"measurement": "% Assay", "setting": "[2]; [12]", "result": 100.4, "unit": "%"}, {"measurement": "% Impurities 3-CBZ", "setting": "[2]; [12]", "result": 0.002, "unit": "%"}, {"measurement": "% Impurities 20U78/dilu", "setting": "[2]; [12]", "result": 0.043, "unit": "%"}, {"measurement": "% Impurities 852U77", "setting": "[2]; [12]", "result": 0.003, "unit": "%"}, {"measurement": "% Impurities Total unknown", "setting": "[2]; [12]", "result": 0.044, "unit": "%"}, {"measurement": "% Impurities Total (%)", "setting": "[2]; Initial, closed glass bottle 40° C./75% RH, HBr Lot# STN07492, HCl L# STN06973, hydrochloride", "result": 0.09, "unit": "%"}, {"measurement": "solubility", "setting": "[3]; EtOH", "result": 80, "unit": "mg/mL"}, {"measurement": "pH (aq. 0.5%)", "setting": "[3]; HCl from Erregierre, HBr from Chemi", "result": 5.90}, {"measurement": "PS (Malvern) 10%", "setting": "[3]; [13]", "result": 10, "unit": "% 32 μm"}, {"measurement": "PS (Malvern) 50%", "setting": "[3]; [13]", "result": 50, "unit": "% 102 μm"}, {"measurement": "PS (Malvern) 90%", "setting": "[3]; [13]", "result": 90, "unit": "% 276 μm"}, {"measurement": "moisture content KF", "setting": "[3]; [13]", "result": 0.01, "unit": "%"}, {"measurement": "solubility", "setting": "[3]; IPA", "result": 10, "unit": "mg/mL"}, {"measurement": "solubility", "setting": "[3]; Water", "result": 270, "unit": "mg/mL"}]}
{"compound": "Br.CC(NC(C)(C)C)C(=O)c1cccc(Cl)c1", "note": "(stereo not drawn) [bupropion hydrobromide]", "values": [{"measurement": "moisture content KF", "setting": "[4]", "result": 0.00, "unit": "%"}, {"measurement": "pH of the aqueous solution of 0.5%", "setting": "[4]", "result": 5.92}, {"measurement": "disproportionation of the salt at elevated temperatures (TGA, loss of API)", "setting": "[1]", "result": "did not occur"}, {"measurement": "duration of convulsive behavior, hydrobromide versus hydrochloride", "setting": "CD-1 mice; study pairs 1, 2 and 3", "result": "lasted longer than the hydrochloride-treated mouse"}, {"measurement": "seizure-like behavioural activity over time, second study pair", "setting": "CD-1 mice", "result": "still observing rearing and falling, forepaw running and turning in the hydrobromide-treated mouse at 60 minutes"}]}
